Key:
Assay in all cases: Test D controlled growth environment herbicide test, pre- and postemergence
Type in all cases: in vivo
[1] = tested on: lambsquarters (Chenopodium album)
How it was run: (§1)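 Species sown in silt loam and sprayed preemergence, or grown in peat-based medium to 2–18 cm (1- to 4-leaf stage) and sprayed postemergence, with compounds in non-phytotoxic solvent plus surfactant. Visual injury scored versus controls after 14–21 d in a controlled environment, 0 (no effect) to 100 (complete control).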

[2] = tested on: ryegrass, Italian (Italian ryegrass, Lolium multiflorum)
How it was run: as §1

[3] = tested on: blackgrass (Alopecurus myosuroides)
How it was run: as §1

[4] = tested on: oilseed rape (Brassica napus)
How it was run: as §1

[5] = tested on: speedwell (bird's-eye speedwell, Veronica persica)
How it was run: as §1

[6] = tested on: bromegrass, downy (downy bromegrass, Bromus tectorum)
How it was run: as §1

[7] = tested on: chickweed (common chickweed, Stellaria media)
How it was run: as §1

[8] = tested on: galium (catchweed bedstraw, Galium aparine)
How it was run: as §1

[9] = tested on: chamomile (scentless chamomile, Matricaria inodora)
How it was run: as §1

[10] = tested on: buckwheat, wild (wild buckwheat, Polygonum convolvulus)
How it was run: as §1

[11] = tested on: field poppy (Papaver rhoeas)
How it was run: as §1

[12] = tested on: barley, winter (winter barley, Hordeum vulgare)
How it was run: as §1

[13] = tested on: canarygrass (Phalaris minor)
How it was run: as §1

[14] = Postemergence, 31 g ai/ha, scale 0 to 100 (0 no effect, 100 complete control)
[15] = Postemergence, 125 g ai/ha, visual rating on scale 0 (no effect) to 100 (complete control), 14 to 21 d
[16] = Postemergence, 250 g ai/ha, scale 0 to 100 (0 no effect, 100 complete control)
[17] = Preemergence, 62 g ai/ha, scale 0 to 100 (0 no effect, 100 complete control)
[18] = Preemergence, 125 g ai/ha, scale 0 to 100 (0 no effect, 100 complete control)
[19] = Preemergence, 250 g ai/ha, scale 0 to 100 (0 no effect, 100 complete control)
[20] = postemergence, 62 g ai/ha, scale 0 to 100, 0 no effect, 100 complete control

With COc1nn(C)c(=O)c(-c2c(C)ccc3ccccc23)c1OC(=O)OC(C)C [Compound 36] the “Lambsquarters plant response rating” value [1, 14] was 95, the “Plant response rating, Lambsquarters” value [1, 15] was 100 and the “Plant response rating, Lambsquarters” value [1, 16] was 100. The “Plant response rating (scale of 0 to 100), Lambsquarters” value ([1]; Preemergence, 31 g ai/ha) was 75, the “Plant response rating, Lambsquarters” value [1, 17] was 95 and the “Plant response rating, Lambsquarters” value [1, 18] was 75. The “Plant response rating, Lambsquarters” value [1, 19] was 95, the “Plant response rating, Lambsquarters” value [1, 20] was 95 and the “Ryegrass, Italian plant response rating” value [2, 14] was 75. For the same molecule, the “Plant response rating, Ryegrass, Italian” value [2, 15] was 90, the “Plant response rating, Ryegrass, Italian” value [2, 16] was 90 and the “Plant response rating (scale of 0 to 100), Ryegrass, Italian” value ([2]; Preemergence, 31 g ai/ha) was 20. For the same molecule, the “Plant response rating, Ryegrass, Italian” value [2, 17] was 65, the “Plant response rating, Ryegrass, Italian” value [2, 18] was 70 and the “Plant response rating, Ryegrass, Italian” value [2, 19] was 70. For the same molecule, the “Plant response rating, Ryegrass, Italian” value [2, 20] was 80, the “Blackgrass plant response rating” value [3, 14] was 25 and the “Plant response rating, Blackgrass” value [3, 15] was 45. The “Plant response rating, Blackgrass” value [3, 16] was 70, the “Plant response rating (scale of 0 to 100), Blackgrass” value ([3]; Preemergence, 31 g ai/ha) was 15 and the “Plant response rating, Blackgrass” value [3, 17] was 30. The “Plant response rating, Blackgrass” value [3, 18] was 35, the “Blackgrass plant response rating” value [3, 19] was 50 and the “Plant response rating, Blackgrass” value [3, 20] was 35. For the same molecule, the “Oilseed Rape plant response rating” value [4, 14] was 75, the “Plant response rating, Oilseed Rape” value [4, 15] was 95 and the “Plant response rating, Oilseed Rape” value [4, 16] was 100. The “Plant response rating (scale of 0 to 100), Oilseed Rape” value ([4]; Preemergence, 31 g ai/ha) was 0, the “Plant response rating, Oilseed Rape” value [4, 17] was 0 and the “Plant response rating, Oilseed Rape” value [4, 18] was 55. For the same molecule, the “Plant response rating, Oilseed Rape” value [4, 19] was 65, the “Plant response rating, Oilseed Rape” value [4, 20] was 85 and the “Speedwell plant response rating” value [5, 14] was 60. The “Plant response rating, Speedwell” value [5, 15] was 100, the “Plant response rating, Speedwell” value [5, 16] was 100 and the “Plant response rating (scale of 0 to 100), Speedwell” value ([5]; Preemergence, 31 g ai/ha) was 95. The “Plant response rating, Speedwell” value [5, 17] was 100, the “Plant response rating, Speedwell” value [5, 18] was 100 and the “Plant response rating, Speedwell” value [5, 19] was 100. The “Plant response rating, Speedwell” value [5, 20] was 90, the “Bromegrass, Downy plant response rating” value [6, 14] was 10 and the “Plant response rating, Bromegrass, Downy” value [6, 15] was 55. The “Plant response rating, Bromegrass, Downy” value [6, 16] was 65, the “Plant response rating (scale of 0 to 100), Bromegrass, Downy” value ([6]; Preemergence, 31 g ai/ha) was 0 and the “Plant response rating, Bromegrass, Downy” value [6, 17] was 0. For the same molecule, the “Plant response rating, Bromegrass, Downy” value [6, 18] was 10, the “Plant response rating, Bromegrass, Downy” value [6, 19] was 35 and the “Plant response rating, Bromegrass, Downy” value [6, 20] was 20. For the same molecule, the “Chickweed plant response rating” value [7, 14] was 100, the “Plant response rating, Chickweed” value [7, 15] was 100 and the “Plant response rating, Chickweed” value [7, 16] was 100. The “Plant response rating (scale of 0 to 100), Chickweed” value ([7]; Preemergence, 31 g ai/ha) was 95, the “Plant response rating, Chickweed” value [7, 17] was 95 and the “Plant response rating, Chickweed” value [7, 18] was 100. The “Plant response rating, Chickweed” value [7, 19] was 100, the “Plant response rating, Chickweed” value [7, 20] was 100 and the “Galium plant response rating” value [8, 14] was 100. The “Plant response rating, Galium” value [8, 15] was 100, the “Plant response rating, Galium” value [8, 16] was 100 and the “Plant response rating (scale of 0 to 100), Galium” value ([8]; Preemergence, 31 g ai/ha) was 0. For the same molecule, the “Plant response rating, Galium” value [8, 17] was 20, the “Plant response rating, Galium” value [8, 18] was 75 and the “Plant response rating, Galium” value [8, 19] was 85. For the same molecule, the “Plant response rating, Galium” value [8, 20] was 100, the “Chamomile plant response rating” value [9, 14] was 95 and the “Plant response rating, Chamomile” value [9, 15] was 100. The “Plant response rating, Chamomile” value [9, 16] was 100, the “Plant response rating, Chamomile” value [9, 20] was 95 and the “Buckwheat, Wild plant response rating” value [10, 14] was 100. The “Plant response rating, Buckwheat, Wild” value [10, 15] was 100, the “Plant response rating, Buckwheat, Wild” value [10, 16] was 100 and the “Plant response rating (scale of 0 to 100), Buckwheat, Wild” value ([10]; Preemergence, 31 g ai/ha) was 0. The “Plant response rating, Buckwheat, Wild” value [10, 17] was 0, the “Plant response rating, Buckwheat, Wild” value [10, 18] was 10 and the “Plant response rating, Buckwheat, Wild” value [10, 19] was 10. The “Plant response rating, Buckwheat, Wild” value [10, 20] was 100, the “Field Poppy plant response rating” value [11, 14] was 60 and the “Plant response rating, Field Poppy” value [11, 15] was 90. The “Plant response rating, Field Poppy” value [11, 16] was 100, the “Plant response rating, Field Poppy” value [11, 17] was 50 and the “Plant response rating, Field Poppy” value [11, 18] was 70. The “Plant response rating, Field Poppy” value [11, 19] was 100, the “Plant response rating, Field Poppy” value [11, 20] was 70 and the “Plant response rating, Barley, Winter” value [12, 14] was 0. For the same molecule, the “Plant response rating, Barley, Winter” value [12, 15] was 5, the “Plant response rating, Barley, Winter” value [12, 16] was 10 and the “Plant response rating (scale of 0 to 100), Barley, Winter” value ([12]; Preemergence, 31 g ai/ha) was 0. The “Plant response rating, Barley, Winter” value [12, 17] was 0, the “Plant response rating, Barley, Winter” value [12, 18] was 0 and the “Barley, Winter plant response rating” value [12, 19] was 0. The “Plant response rating, Barley, Winter” value [12, 20] was 0, the “Canarygrass plant response rating” value [13, 14] was 15 and the “Plant response rating, Canarygrass” value [13, 15] was 55. The “Plant response rating, Canarygrass” value [13, 16] was 80, the “Plant response rating (scale of 0 to 100), Canarygrass” value ([13]; Preemergence, 31 g ai/ha) was 0 and the “Plant response rating, Canarygrass” value [13, 17] was 45. The “Plant response rating, Canarygrass” value [13, 18] was 40, the “Plant response rating, Canarygrass” value [13, 19] was 65 and the “Plant response rating, Canarygrass” value [13, 20] was 40.

Source: patent US10597388B2, “Pyridazinone herbicides” (FMC CORPORATION, priority 2014, dated 2020)
